# Measured values reported in PubChem BioAssay (NCI).
# Several values for one entry are separate records, joined by “and”; a condition that tells them apart may be missing. Equal values may be shown once.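 Results reflect a 48-hour exposure of cells in 96-well plates to compound at five concentrations. GI50 = concentration required for 50% inhibition of growth. TGI: total growth inhibition.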
# Key:
# Assay in all cases: NCI anticancer screen, dose series, 48 h
# [1] = system: SK-MEL-28 melanoma
# [2] = system: CCRF-CEM leukemia
# [3] = system: HT29 colon
# [4] = system: MOLT-4 leukemia
# [5] = system: UACC-257 melanoma
# [6] = system: MDA-MB-435
# [7] = system: MCF7 breast
# [8] = system: UACC-62 melanoma
SMILES,GI50 [1],TGI [1],GI50 [2],TGI [2],GI50 [3],TGI [3],GI50 [4],TGI [4],GI50 [5],TGI [5],GI50 [6],TGI [6],GI50 [7],TGI [7],GI50 [8],TGI [8]
N=C(N)c1ccc2nc(-c3cc(CC(=O)N[C@@H](CC(=O)O)C(=O)O)cc(-c4cc(S(N)(=O)=O)ccc4O)c3O)[nH]c2c1,> 100 µM,> 100 µM,> 100 µM,> 100 µM,> 100 µM,> 100 µM,> 100 µM,> 100 µM,> 100 µM,> 100 µM,> 100 µM,> 100 µM,> 100 µM,> 100 µM,> 100 µM,> 100 µM
C=C1C(=O)O[C@H]2[C@H]1CC/C(COC(=O)/C=C\C(=O)NCc1ccc(Cn3c(=O)sn(CCCC)c3=O)cc1)=C\CC[C@@]1(C)O[C@@H]21,1.41 µM,2.74 µM,0.275 µM,1.63 µM,0.472 µM,2.07 µM,0.34 µM,1.52 µM,1.38 µM,2.93 µM,0.513 µM,1.77 µM,0.365 µM,2.03 µM,1.2 µM,2.53 µM
CCN1C(=O)N(CC)C2C1NN=c1s/c(=C3\C(=O)N(CC(C)(C)C)c4ccccc43)c(=O)n12 (configuration not stated),6.94 µM,22 µM,3.62 µM,> 100 µM,3.6 µM,17 µM,3.79 µM,40.3 µM,13.1 µM,37.9 µM,1.54 µM,7.1 µM,1.62 µM,18.7 µM,3.06 µM,15.8 µM
COc1cc2c(c(OC)c1OC)-c1ncc3cc4c(cc3c1C2)OCO4,54.6 µM,> 100 µM,,,,,,,,,13.2 µM,32.6 µM,,,19.3 µM,> 100 µM
CSc1ccc2c(c1)C(=O)c1c-2n(CCCBr)c(=O)c2cc([N+](=O)[O-])ccc12,51.8 µM,> 100 µM,0.451 µM,> 100 µM,28.2 µM,> 100 µM,0.558 µM,17 µM,> 100 µM,> 100 µM,31 µM,> 100 µM,1.58 µM,> 100 µM,3.1 µM,> 100 µM
O=C1NC(=O)/C(=C\c2ccccc2)C2=C1CCCC2,4.14 µM,13.9 µM,3.7 µM,> 37.9 µM,14.9 µM,44.1 µM,2.77 µM,7.73 µM,8.11 µM,22.5 µM,1.82 µM,3.49 µM,5.15 µM,25 µM,3.13 µM,9.13 µM
NC(=O)c1cc(S(=O)(=O)Nc2nnc(-c3ccccc3)c(-c3ccccc3)n2)c(SCc2ccccc2)cc1Cl,,> 100 µM,> 50.4 µM,> 82.3 µM,,> 100 µM,38.2 µM,> 70.1 µM,> 48.2 µM,> 89.9 µM,> 53.4 µM,> 100 µM,30.2 µM,> 66.4 µM,71.1 µM,> 100 µM
N#Cc1c(N/N=C/c2ccc(Cl)cc2Cl)nc(N)nc1N1CCCC1,37.6 µM,> 100 µM,23.5 µM,58.3 µM,37.1 µM,> 100 µM,25 µM,> 100 µM,> 100 µM,> 100 µM,62.2 µM,> 100 µM,> 100 µM,> 100 µM,25.6 µM,84.2 µM
COc1ccc(-c2coc3c4c(ccc3c2=O)OCO4)cc1OC,,> 100 µM,,> 100 µM,,> 100 µM,,> 100 µM,,> 100 µM,,> 100 µM,,> 100 µM,,> 100 µM
Cc1nc2sc3c(c2c(=O)[nH]1)CCCC3,,> 100 µM,,,,> 100 µM,,> 100 µM,,> 100 µM,,> 100 µM,,> 100 µM,,> 100 µM
CCOc1ccncc1[N+](=O)[O-],,> 100 µM,,> 100 µM,,> 100 µM,,> 100 µM,,> 100 µM,,> 100 µM,,> 100 µM,,> 100 µM
Cn1cc(C2=C(c3cccc(Br)c3)C(=O)NC2=O)c2ccccc21,> 22.9 µM,> 25 µM,12.3 µM,> 25 µM,> 15 µM,> 25 µM,9.91 µM,> 25 µM,> 19.8 µM,> 25 µM,5.82 µM,> 25 µM,6.08 µM,> 25 µM,11.3 µM,> 25 µM
C#COc1cccc(Nc2c(C#N)cnc3ncc(NC(=O)CCl)cc23)c1,> 62.5 µM,> 62.5 µM,3.72 µM,> 62.5 µM,21.8 µM,> 62.5 µM,4.2 µM,> 62.5 µM,> 62.5 µM,> 62.5 µM,> 62.5 µM,> 62.5 µM,12.8 µM,> 62.5 µM,35.7 µM,> 62.5 µM
COc1ccc(-n2c(C)cc(-c3ccccc3)c2C)cc1,3.68 µM,> 100 µM,2.16 µM,9.16 µM,1.89 µM,7.23 µM,,,2.33 µM,7.51 µM,1.56 µM,5.58 µM,3.58 µM,> 100 µM,2.01 µM,12.8 µM
CCn1c(=O)c2c(=O)c3c4c(oc3oc2c2ccccc21)C(=O)c1ccccc1C4=O,> 100 µM,> 100 µM,1.18 µM,> 100 µM,,,0.366 µM,2.12 µM,> 100 µM,> 100 µM,> 100 µM,> 100 µM,> 100 µM,> 100 µM,> 25 µM,> 100 µM
CC1=C(C(=O)Nc2ccc(Cl)c(Cl)c2)C(c2cccc(Oc3ccccc3)c2)NC(=O)N1 (configuration not stated),11.1 µM,33.2 µM,> 50 µM,> 50 µM,,,> 50 µM,> 50 µM,11.9 µM,42.6 µM,6.33 µM,16.7 µM,,,6.27 µM,14.1 µM
COC(=O)[C@@H](C)C[C@H](Cc1ccccc1)NC(=O)c1csc([C@@H](C[C@H](C(C)C)N(C)C(=O)[C@@H](NC(=O)[C@H]2CCCCN2C)C2CCCCC2)OC(C)=O)n1,,,0.00195 µM and 0.0025 µM,5.8 µM,0.000314 µM and 0.0025 µM,4.95 µM,0.00512 µM and 0.0025 µM,4.87 µM,,,< 0.0001 µM,0.000368 µM,,> 25 µM,0.000354 µM and 0.0025 µM,> 25 µM
